This assay concerns the target T1, T1R umami taste receptor (Homo sapiens, UniProt Q7RTX0+Q7RTX1).
T1 sequence (Q7RTX1 21-841): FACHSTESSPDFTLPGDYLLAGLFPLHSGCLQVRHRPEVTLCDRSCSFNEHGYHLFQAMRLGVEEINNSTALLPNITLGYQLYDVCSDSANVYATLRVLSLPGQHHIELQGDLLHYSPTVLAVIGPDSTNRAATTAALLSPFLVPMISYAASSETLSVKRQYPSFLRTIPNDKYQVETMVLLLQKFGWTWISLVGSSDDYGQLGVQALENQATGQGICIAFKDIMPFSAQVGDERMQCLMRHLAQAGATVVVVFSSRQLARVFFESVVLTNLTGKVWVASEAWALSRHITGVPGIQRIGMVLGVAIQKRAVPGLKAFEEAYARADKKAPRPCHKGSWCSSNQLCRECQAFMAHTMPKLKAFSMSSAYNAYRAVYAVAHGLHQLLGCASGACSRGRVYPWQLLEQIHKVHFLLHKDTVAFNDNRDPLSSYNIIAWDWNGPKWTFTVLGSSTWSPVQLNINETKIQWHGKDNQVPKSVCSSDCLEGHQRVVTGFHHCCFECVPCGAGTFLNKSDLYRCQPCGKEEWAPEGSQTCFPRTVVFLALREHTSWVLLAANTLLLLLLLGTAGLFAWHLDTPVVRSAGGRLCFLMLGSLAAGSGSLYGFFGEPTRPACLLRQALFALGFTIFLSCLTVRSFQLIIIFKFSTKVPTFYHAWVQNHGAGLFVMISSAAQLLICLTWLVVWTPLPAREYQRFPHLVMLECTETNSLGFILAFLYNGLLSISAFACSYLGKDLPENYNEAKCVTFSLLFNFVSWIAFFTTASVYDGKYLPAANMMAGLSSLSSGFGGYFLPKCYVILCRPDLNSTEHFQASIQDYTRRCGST
T1 sequence (Q7RTX0 21-852): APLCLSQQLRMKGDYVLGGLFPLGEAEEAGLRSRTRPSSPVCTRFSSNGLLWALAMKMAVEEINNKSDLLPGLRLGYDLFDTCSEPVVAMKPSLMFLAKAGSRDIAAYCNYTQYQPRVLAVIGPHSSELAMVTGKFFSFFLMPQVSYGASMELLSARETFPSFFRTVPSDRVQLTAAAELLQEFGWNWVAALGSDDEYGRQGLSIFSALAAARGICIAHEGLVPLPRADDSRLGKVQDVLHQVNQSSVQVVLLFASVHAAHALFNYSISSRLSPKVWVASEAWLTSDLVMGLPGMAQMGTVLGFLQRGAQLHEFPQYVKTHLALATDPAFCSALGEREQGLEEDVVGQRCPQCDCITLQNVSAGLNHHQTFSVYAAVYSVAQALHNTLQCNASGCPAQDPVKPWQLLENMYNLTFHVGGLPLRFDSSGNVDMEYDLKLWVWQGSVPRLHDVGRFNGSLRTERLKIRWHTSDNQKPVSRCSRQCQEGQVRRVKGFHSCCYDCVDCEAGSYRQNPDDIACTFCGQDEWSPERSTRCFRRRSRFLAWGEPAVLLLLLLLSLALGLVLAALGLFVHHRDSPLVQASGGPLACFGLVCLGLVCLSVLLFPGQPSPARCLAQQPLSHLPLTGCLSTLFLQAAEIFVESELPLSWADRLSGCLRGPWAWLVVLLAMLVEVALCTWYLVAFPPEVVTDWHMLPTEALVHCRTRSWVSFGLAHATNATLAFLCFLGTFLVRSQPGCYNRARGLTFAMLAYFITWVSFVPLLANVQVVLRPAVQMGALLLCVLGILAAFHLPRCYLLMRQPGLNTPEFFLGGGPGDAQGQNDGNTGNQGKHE
Description: in vitro cell-based assay, enhancement of MSG binding. The note with it: cells that express the T1R umami taste receptor. The protocol: Each of the compounds set forth in Table 2 were synthesized according to one of the general procedures set forth above in Example 1 or 2. Thereafter, the compounds were tested in an in vitro cell-based assay having cells that express the T1R umami taste receptor. Dose-binding curves were recorded and the EC50 was determined for enhancement of MSG binding. Table 2 sets forth the calculated EC50 values for certain tested compounds.
Turning to `C/C=C(\C)C(=O)NCCC[C@H](NC(=O)c1ccc(C)cc1)C(=O)OCC` [Compound 109], the EC50 was determined as 1500 nM.
For `C/C=C(\C)C(=O)NCCC[C@H](NC(=O)c1cc(C)c(C)c(C)c1)C(=O)OCC` [Compound 115], the half-maximal effective concentration (EC50) stood at 40 nM.
In the case of `C/C=C(\C)C(=O)NCCC[C@H](NC(=O)/C=C/c1ccc(OC)cc1)C(=O)OC` [Compound 128], the 50% effective concentration (EC50) was determined as 640 nM.
Take `C/C=C(\C)C(=O)NCCC[C@H](NC(=O)c1ccc(C)c(C)c1)C(=O)OCC` [Compound 113]: the EC50 was found to be 500 nM.
For the molecule `C/C=C(\C)C(=O)NCCC[C@H](NC(=O)c1cc(C)c(C)c(C)c1)C(=O)OC` [Compound 114], the EC50 worked out at 400 nM.
The figure for `C/C=C(\C)C(=O)NCCC[C@H](NC(=O)/C=C/c1ccc(OC)cc1OC)C(=O)OCC` [Compound 133] is 400 nM; for `C/C=C(\C)C(=O)NCCC[C@H](NC(=O)c1ccc(C)cc1)C(=O)OC` [Compound 108] it is 2500 nM.
As to `CCOC(=O)[C@H](CCCNC(=O)c1ccc(C)c(C)c1)NC(=O)c1ccc(C)c(C)c1` [Compound 104], the EC50 worked out at 14000 nM.
Regarding `C/C=C(\C)C(=O)NCCC[C@H](NC(=O)c1ccccc1)C(=O)OCC` [Compound 107], the EC50 turned out to be 8000 nM.
For the molecule `C/C=C(\C)C(=O)NCCC[C@H](NC(=O)/C=C/c1ccccc1OC)C(=O)OC` [Compound 124], the EC50 is 500 nM.
For the molecule `C/C=C(\C)C(=O)NCCC[C@H](NC(=O)c1ccc2c(c1)OCO2)C(=O)OCC` [Compound 121], the EC50 was determined as 500 nM.
As to `C/C=C(\C)C(=O)NCCC[C@H](NC(=O)c1ccc(OC)cc1)C(=O)OC` [Compound 110], the EC50 stood at 700 nM.
Regarding `C/C=C(\C)C(=O)NCCC[C@H](NC(=O)c1ccccc1)C(=O)OC` [Compound 106], the EC50 stood at 3500 nM.
The figure for `C/C=C(\C)C(=O)NCCC[C@H](NC(=O)c1ccc(OC)cc1)C(=O)OCC` [Compound 111] is 400 nM.
For `CCOC(=O)[C@H](CCCNC(=O)c1ccccc1)NC(=O)c1ccccc1` [Compound 103], the EC50 came to 2000 nM.
As to `C/C=C(\C)C(=O)NCCC[C@H](NC(=O)c1ccc(C)c(C)c1)C(=O)OC` [Compound 112], the concentration for a half-maximal effect (EC50) is less than 100 nM.
Consider `O=C(NCCC[C@H](NC(=O)c1ccccc1)C(=O)O)c1ccccc1` [Compound 101], for which the EC50 is more than 50000 nM.
Then `COC(=O)[C@H](CCCNC(=O)c1ccccc1)NC(=O)c1ccccc1` [Compound 102], with 30000 nM; and `CCOC(=O)[C@H](CCCNC(=O)c1ccc2c(c1)OCO2)NC(=O)c1ccc2c(c1)OCO2` [Compound 105], with 35000 nM.
For the molecule `C/C=C(\C)C(=O)NCCC[C@H](NC(=O)/C=C/c1ccccc1)C(=O)OC` [Compound 122], the EC50 was determined as 200 nM.
Take `C/C=C(\C)C(=O)NCCC[C@H](NC(=O)/C=C/c1ccccc1)C(=O)OCC` [Compound 123]: the concentration giving a half-maximal response (EC50) was determined as 600 nM.
In the case of `C/C=C(\C)C(=O)NCCC[C@H](NC(=O)/C=C/c1ccc(OC)cc1)C(=O)OCC` [Compound 129], the EC50 worked out at 60 nM.
As to `C/C=C(\C)C(=O)NCCC[C@H](NC(=O)/C=C/c1ccc(OC)cc1OC)C(=O)OC` [Compound 132], the concentration giving a half-maximal response (EC50) turned out to be 100 nM.

For the origin of these results see patent publication US20240156140A1, “AMIDE COMPOUNDS AND THEIR USE AS FLAVOR MODIFIERS” (Firmenich Incorporated, priority 2021, published 2024).
